From US8563241B2 (Institut de Cardiologie de Montreal, priority 2009, dated 2013) come the findings set out here.

Data set [1] is described as follows: Retrospective study of INR fluctuations outside the target therapeutic INR range in 1,615 patients of the MHI warfarin clinic (Rosendaal method). The class given is in vivo, human. The note with it: post-stabilization follow up period (first six months and hospitalization periods excluded). The procedure:
(§1) The study was focused on the post INR-stabilization period by excluding the first six months of therapy, and further excluded hospitalization periods. […] INR fluctuations were measured according to the Rosendaal method based on linear interpolation.

Data set [2] is described as follows: Pilot genetic study of INR fluctuations in 324 post INR-stabilization atrial fibrillation patients by CYP4F2 rs2108622 and NR1I2 rs6772976 genotype. The class given is in vivo, human. The procedure: as §1
For the pilot genetic study, 324 patients with atrial fibrillation were selected, for whom therapy was started prior to Aug. 1, 2005, with a follow up of 36 months or more and with at most 70 years of age. […] Genotyping was conducted using the Sequenom technology.

With `CC(=O)CC(c1ccccc1)c1c(O)c2ccccc2oc1=O` (stereo not shown) [warfarin], the “time above target therapeutic INR range” value in data set [1] came out at 17.2%. For the same compound, the “average % of the time above the patient-specific target therapeutic INR range” value was found to be 17.1% in data set [2] (patients with CYP4F2 rs2108622 CC genotype), 15.9% in data set [2] (patients with CYP4F2 rs2108622 CT genotype) and 29.6% in data set [2] (patients with CYP4F2 rs2108622 TT genotype).
